Source: ChEMBL document CHEMBL4739711, “Method of inhibiting DYRK1B” (2020)
Activity calls are given as the source filed them. The calls are words filed in the database; no cut-off is given here.

Tests used:
[1] = target: T1, Zinc finger protein GLI1 (Homo sapiens) (UniProt P08151); assay: Inhibition of GLI in SAG stimulated human Daoy cells assessed as prevention of Hedgehog signaling by measuring reduction of PTCH1 expression at 20 uM in presence of siRNA for SUFU by Western blot analysis; type: tissue-based
T1 sequence (whole entry): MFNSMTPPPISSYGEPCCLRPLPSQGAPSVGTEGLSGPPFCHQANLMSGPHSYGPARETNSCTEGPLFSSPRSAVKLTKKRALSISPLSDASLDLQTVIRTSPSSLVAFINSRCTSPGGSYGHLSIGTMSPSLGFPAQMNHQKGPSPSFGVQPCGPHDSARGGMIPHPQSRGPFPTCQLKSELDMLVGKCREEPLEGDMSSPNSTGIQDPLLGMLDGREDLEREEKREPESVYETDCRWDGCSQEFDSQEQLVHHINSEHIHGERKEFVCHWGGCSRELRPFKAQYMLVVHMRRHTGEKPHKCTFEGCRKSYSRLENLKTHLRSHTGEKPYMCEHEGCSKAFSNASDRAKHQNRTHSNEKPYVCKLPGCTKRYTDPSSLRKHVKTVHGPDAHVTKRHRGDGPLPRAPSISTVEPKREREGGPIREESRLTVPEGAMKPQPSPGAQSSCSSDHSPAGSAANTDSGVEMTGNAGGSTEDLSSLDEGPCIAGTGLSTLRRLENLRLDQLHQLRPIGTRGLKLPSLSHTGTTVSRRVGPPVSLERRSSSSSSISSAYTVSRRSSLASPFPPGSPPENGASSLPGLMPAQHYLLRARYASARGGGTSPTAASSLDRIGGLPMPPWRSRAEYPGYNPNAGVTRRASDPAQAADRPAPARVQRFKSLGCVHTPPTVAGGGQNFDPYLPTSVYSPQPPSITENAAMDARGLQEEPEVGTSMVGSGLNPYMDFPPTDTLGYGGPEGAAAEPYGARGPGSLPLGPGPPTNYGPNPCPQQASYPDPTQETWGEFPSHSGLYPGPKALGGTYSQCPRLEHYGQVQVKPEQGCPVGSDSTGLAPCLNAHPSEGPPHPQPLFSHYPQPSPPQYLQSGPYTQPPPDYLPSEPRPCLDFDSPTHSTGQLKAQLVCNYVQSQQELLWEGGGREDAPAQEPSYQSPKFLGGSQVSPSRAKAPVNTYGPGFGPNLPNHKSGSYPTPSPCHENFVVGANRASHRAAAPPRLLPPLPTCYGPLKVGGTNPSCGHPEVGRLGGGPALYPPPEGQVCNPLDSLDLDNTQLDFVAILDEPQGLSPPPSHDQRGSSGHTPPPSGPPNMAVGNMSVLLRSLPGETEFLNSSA

[2] = target: T1, Zinc finger protein GLI1 (Homo sapiens); assay: Inhibition of GLI in SAG stimulated human Daoy cells assessed as prevention of Hedgehog signaling by measuring reduction of GLI expression at 20 uM in presence of siRNA for SUFU by Western blot analysis; type: tissue-based
[3] = target: Dual specificity tyrosine-phosphorylation-regulated kinase 1B (Homo sapiens) (UniProt Q9Y463); assay: Inhibition of DYRK1B in SAG stimulated human Daoy cells assessed as prevention of Hedgehog signaling by measuring reduction of GLI expression at 1 to 5 uM by Western blot analysis; type: tissue-based; details: dose 1-5 µM
[4] = target: Dual specificity tyrosine-phosphorylation-regulated kinase 1B (Homo sapiens) (UniProt Q9Y463); assay: Inhibition of DYRK1B in human A673 cells assessed as prevention of Hedgehog signaling by measuring reduction of GLI expression at 10 to 25 uM by Western blot analysis; type: cell-based; details: dose 10-25 µM
[5] = target: Protein smoothened (Mus musculus) (UniProt P56726); assay: Inhibition of SMO in SAG stimulated mouse BCC cells assessed as prevention of Hedgehog signaling by measuring reduction of GLI expression at 10 to 25 uM by Western blot analysis; type: cell-based; details: dose 10-25 µM
PANC-1 [6] = assay: Inhibition of colony formation in human PANC-1 cells at 10 to 25 uM; type: functional, cell-based; details: dose 10-25 µM
[7] = target: Dual specificity tyrosine-phosphorylation-regulated kinase 1B (Homo sapiens) (UniProt Q9Y463); assay: Inhibition of DYRK1B in SAG stimulated human Daoy cells assessed as prevention of Hedgehog signaling by measuring reduction of GLI expression at 10 to 25 uM by Western blot analysis; type: tissue-based; details: dose 10-25 µM
[8] = target: Dual specificity tyrosine-phosphorylation-regulated kinase 1B (Homo sapiens) (UniProt Q9Y463); assay: Inhibition of DYRK1B in SAG stimulated human Daoy cells assessed as prevention of Hedgehog signaling by measuring reduction of PTCH1 expression at 10 to 25 uM by Western blot analysis; type: tissue-based; details: dose 10-25 µM
[9] = target: Dual specificity tyrosine-phosphorylation-regulated kinase 1B (Homo sapiens) (UniProt Q9Y463); assay: Inhibition of DYRK1B in human PANC-1 cell assessed as prevention of Hedgehog signaling by measuring reduction of GLI expression at 10 to 25 uM by Western blot analysis; type: tissue-based; details: dose 10-25 µM
PANC-1 [10] = assay: Toxicity in human PANC-1 cells assessed as effect on cell viability at 10 to 25 uM; type: cell-based; details: panc-1, 25 µM, dose 10-25 µM
PANC-1 [11] = assay: Inhibition of colony formation in human PANC-1 cells at 0.5 uM; type: functional, cell-based
PANC-1 [12] = assay: Toxicity in human PANC-1 cells assessed as effect on cell viability at 0.5 uM; type: cell-based; details: panc-1, 0.5 µM

Chain of Dual specificity tyrosine-phosphorylation-regulated kinase 1B (Homo sapiens) (Q9Y463 whole entry, looked up): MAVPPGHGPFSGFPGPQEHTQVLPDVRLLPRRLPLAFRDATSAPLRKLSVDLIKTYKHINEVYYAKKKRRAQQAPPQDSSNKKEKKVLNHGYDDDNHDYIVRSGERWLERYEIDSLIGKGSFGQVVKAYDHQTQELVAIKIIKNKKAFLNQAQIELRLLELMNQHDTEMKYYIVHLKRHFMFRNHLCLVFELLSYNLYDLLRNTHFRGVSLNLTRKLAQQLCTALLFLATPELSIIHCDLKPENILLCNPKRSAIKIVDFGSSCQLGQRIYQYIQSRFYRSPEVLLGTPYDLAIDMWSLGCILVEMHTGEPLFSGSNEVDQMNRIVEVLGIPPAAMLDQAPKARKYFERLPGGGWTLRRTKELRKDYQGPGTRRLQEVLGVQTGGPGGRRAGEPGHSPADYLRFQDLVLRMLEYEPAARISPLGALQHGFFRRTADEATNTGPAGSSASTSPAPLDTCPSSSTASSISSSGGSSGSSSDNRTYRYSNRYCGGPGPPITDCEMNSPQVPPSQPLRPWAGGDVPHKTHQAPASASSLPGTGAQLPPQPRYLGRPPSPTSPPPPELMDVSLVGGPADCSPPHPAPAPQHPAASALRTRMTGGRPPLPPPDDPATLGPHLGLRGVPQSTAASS
Chain of Protein smoothened (Mus musculus) (P56726 whole entry): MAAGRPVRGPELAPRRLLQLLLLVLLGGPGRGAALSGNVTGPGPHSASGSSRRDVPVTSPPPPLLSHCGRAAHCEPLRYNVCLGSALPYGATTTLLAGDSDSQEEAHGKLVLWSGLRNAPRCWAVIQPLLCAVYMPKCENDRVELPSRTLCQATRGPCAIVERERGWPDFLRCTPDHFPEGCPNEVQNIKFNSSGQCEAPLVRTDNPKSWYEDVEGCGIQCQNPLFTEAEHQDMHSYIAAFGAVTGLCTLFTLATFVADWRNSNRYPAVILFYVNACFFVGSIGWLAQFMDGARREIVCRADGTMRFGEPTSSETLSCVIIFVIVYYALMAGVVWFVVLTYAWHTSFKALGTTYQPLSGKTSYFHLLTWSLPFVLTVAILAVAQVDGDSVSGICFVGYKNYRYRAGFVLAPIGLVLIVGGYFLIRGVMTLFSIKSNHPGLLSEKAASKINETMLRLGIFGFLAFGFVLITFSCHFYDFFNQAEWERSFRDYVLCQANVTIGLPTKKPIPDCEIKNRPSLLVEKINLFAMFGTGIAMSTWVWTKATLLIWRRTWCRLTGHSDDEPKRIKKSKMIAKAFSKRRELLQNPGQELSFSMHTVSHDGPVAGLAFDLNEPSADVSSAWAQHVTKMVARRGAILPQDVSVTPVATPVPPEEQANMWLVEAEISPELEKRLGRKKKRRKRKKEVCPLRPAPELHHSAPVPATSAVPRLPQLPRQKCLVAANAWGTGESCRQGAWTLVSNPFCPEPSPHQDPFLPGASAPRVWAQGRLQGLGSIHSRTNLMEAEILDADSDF

CN(C)c1ccccc1CN1CCCN(Cc2ccccc2N(C)C)C1c1ccncc1
inhibition [1]: Active
inhibition [2]: Active

FC(F)(F)c1ccc2[nH]c(Nc3ncccn3)nc2c1
inhibition [3]: Active

COc1ccc2c(c1)[nH]c1c(C)nccc12 [HARMINE]
inhibition [4]: Active
inhibition [5]: Active
inhibition (PANC-1 [6]): Active
inhibition [7]: Active
inhibition [8]: Active
inhibition [9]: Active
Activity (PANC-1 [10]): Non-Toxic

CS(=O)(=O)c1ccc(C(=O)Nc2ccc(Cl)c(-c3ccccn3)c2)c(Cl)c1 [VISMODEGIB]
inhibition (PANC-1 [11]): inactive
Activity (PANC-1 [12]): Non-Toxic
